# Test results published in patent US20230346893A1, “Methods and Compositions for Preventing or Minimizing Epithelial-Mesenchymal Transition” (Innovon Pharmaceuticals Inc., priority 2016, published 2023).
# Legend:
# HK-2 cells [1] = test: TGF-β-induced collagen 1 mRNA expression (EMT marker) in HK-2 cells, quantitative real-time PCR; assay type: cell-based, human; conditions: for Effect on expression of collagen in TGF-β-induced HK-2 cells (in words): alone or formulated with albumin, concentrations of Table 1; for Changes in collagen mRNA expression (relative to TGF-β-treated cells): fatty acid concentration 5.0 × 10^−4M, TGF-β 10 ng/ml
# Experimental: HSA was dissolved in PBS to obtain a concentration of 6.6% (6.6 g/100 ml), and was filtered using a 0.2 μm filter. 75 μl of sodium octanoate or sodium decanoate 10 mM was mixed with 75 μl of HSA 6.6% (without vortex), and incubated 10 min at room temperature. 100 μL of this mixture was used in the assay of Example 4 in a final volume of 1 ml (dilution 1:10).
# Analysis was undertaken to determine the effect of various compositions on TGF-β-induced collagen 1 expression, which is a marker of EMT, on immortalized human proximal tubule epithelial cells (HK-2 cells). HK-2 cells were treated with TGF-β (an inducer of EMT) at a concentration of 10 ng/ml. Expression of the EMT marker collagen 1 mRNA was determined by quantitative real-time PCR.
# (§1) Real-Time PCR was using human TaqMan Gene Expression Assay normalized to human GAPDH endogenous control. Reference is TGF-β1 control (RQ=1). The * and ** mean a p value of 0.05 and 0.01 respectively, compared to reference. Tested concentration of the mixture of sodium octanoate and sodium decanoate is 500 μM. The number of experiments is 3 (n=3).
# HK-2 cells [2] = test: as above; assay type: cell-based, human
# [3] = system: human hepatocellular carcinoma cell line HepG2; test: Collagen 1a1 mRNA expression (EMT marker) in TGF-β induced HepG2; assay type: cell-based; conditions: 500 μM; both in presence of albumin (With HSA) or absence of albumin (No HSA); n=3
# Experimental: as §1, with “*, **” for “*”, “****” for “**”, “0.05, 0.01” for “0.05”, “0.0001” for “0.01”, “concentration” for “concentration of the mixture”
# PC-3 cells = test: Scratch assay, migration/invasion of mitomycin-treated EGF-induced PC-3 cells; assay type: cell-based, human; conditions: EGF 50 ng/mL + Mitomycin C 10 μg/mL, 24 h; for EGF-induced PC-3 migration or invasion (FIG. 7, in words): with and without albumin
# Source text: The present experiment exemplifies EMT analysis of cancer cells through invasion/migration of PC-3 cell in a “scratch assay”. This assay is based on the observation that, upon creation of a new artificial gap, so called ‘scratch’, on a confluent cell monolayer, the cells on the edge of the newly created gap will move toward the opening to close the scratch. EGF ([…]) was used to induce the migratory/invasion of PC-3 cells into the scratch. Briefly, culture-inserts are placed in a 24-well cell culture plate. PC-3 cells are seeded in culture-inserts and are incubated overnight at 37° C. in a CO2 incubator. Cells are then starved with serum-free medium for another 24 hours. The insert is removed, leaving a visible 500 μm cell-free gap. Cells were treated for 24 h with EGF at 50 ng/mL and Mitomycin C at 10 μg/mL (Mito+EGF) and with a pro-EMT agent, sodium octanoate (Mito+EGF+sodium octanoate) or an anti-EMT agent, sodium decanoate (Mito+EGF+sodium decanoate), with HSA (second row in FIG. 7) and without HSA (first row in FIG. 7). Pictures are taken at 1 h post-treatment as a confluence control for each group. After 24 h, cells are fixed with Crystal Violet staining and air dried before 24 h post treatment pictures are taken.
# [4] = system: human microvascular endothelial cells (HMEC); test: Collagen 1a1 mRNA expression (EndoMT/EMT marker) in TGF-β induced HMEC; assay type: cell-based; conditions: 500 μM; both in presence of albumin (With HSA) or absence of albumin (No HSA); n=3
# Experimental: Endothelial to mesenchymal transition (EndoMT), which is included in the definition of the expression EMT as used in the present description, can be induced by transforming growth factor (TGF-β). […] Real-Time PCR was using human TaqMan Gene Expression Assay normalized to human GAPDH endogenous control. Reference is TGF-β1 control (RQ=1). The ** and *** mean a p value of 0.01 and 0.001 respectively, compared to reference. Tested concentration of sodium octanoate and sodium decanoate is 500 μM. The number of experiments is 3 (n=3).
# [5] = system: human lung epithelial cell A549; test: Collagen 1a1 mRNA expression (EMT marker) in TGF-β induced A549; assay type: cell-based; conditions: 500 μM; both in presence of albumin (With HSA) or absence of albumin (No HSA); n=3
# Experimental: as §1, with “***” for “*”, “****” for “**”, “0.001” for “0.05”, “0.0001” for “0.01”, “concentration” for “concentration of the mixture”
# [6] = fatty acid concentration 2.5 × 10^−4M, TGF-β 10 ng/ml
smiles,measurement,setting,value
CCCCCCCCCCC(=O)O [Undecanoic Acid],Effect on expression of collagen in TGF-β-induced HK-2 cells (in words),HK-2 cells [1],inhibited the expression of collagen
same,Changes in collagen mRNA expression (relative to TGF-β-treated cells),"HK-2 cells [2]; fatty acid concentration 2.7 × 10^−7M, TGF-β 10 ng/ml",120.95% of decrease
"CCCCCCCC(=O)[O-].[Na+] [Sodium Octanoate, reference compound]","Mesenchymal transition induced by TGF-β (collagen 1a1 mRNA expression, FIG. 5, in words)",[3],contrarily
same,"EGF-induced PC-3 migration (FIG. 7, in words)",PC-3 cells; combined with albumin,migration is increased
same,"EGF-induced PC-3 migration or invasion (FIG. 7, in words)",PC-3 cells,does not inhibit the cell migration
same,"Mesenchymal transition induced by TGF-β (collagen 1a1 mRNA expression, FIG. 4, in words)",[4],contrarily
same,Effect on expression of collagen in TGF-β-induced HK-2 cells (in words),HK-2 cells [1],expression of collagen was increased (or stimulated)
same,Changes in collagen mRNA expression (relative to TGF-β-treated cells),HK-2 cells [1],24.1% of increase
same,"Mesenchymal transition induced by TGF-β (collagen 1a1 mRNA expression, FIG. 6, in words)",[5],no significant results
same,Changes in collagen mRNA expression (relative to TGF-β-treated cells),HK-2 cells [2]; [6],42.2% of increase
CCCCCCCCCC(=O)OCC(COC(=O)CCCCCCCCC)OC(=O)CCCCCCCCC [Tricaprin],Changes in collagen mRNA expression (relative to TGF-β-treated cells),HK-2 cells [2]; triglyceride concentration 5%,120.4% of decrease
CCCCCCCCCC(=O)[O-].[Na+] [Sodium Decanoate],"Mesenchymal transition induced by TGF-β (collagen 1a1 mRNA expression, FIG. 5, in words)",[3],reduced significantly the mesenchymal transition
same,"EGF-induced PC-3 migration or invasion (FIG. 7, in words)",PC-3 cells,inhibition of the EGF-induced PC-3 migration or invasion
same,"Mesenchymal transition induced by TGF-β (collagen 1a1 mRNA expression, FIG. 4, in words)",[4],reduced significantly the mesenchymal transition
same,Effect on expression of collagen in TGF-β-induced HK-2 cells (in words),HK-2 cells [1],decrease (or inhibit) the expression of collagen
same,Changes in collagen mRNA expression (relative to TGF-β-treated cells),HK-2 cells [1],103.4% of decrease
same,"Mesenchymal transition induced by TGF-β (collagen 1a1 mRNA expression, FIG. 6, in words)",[5],reduced significantly the mesenchymal transition
same,Changes in collagen mRNA expression (relative to TGF-β-treated cells),HK-2 cells [2]; [6],66.6% of decrease
CCCCCCCCCCCC(=O)[O-].[Na+] [Sodium Laurate],Effect on expression of collagen in TGF-β-induced HK-2 cells (in words),HK-2 cells [1],inhibited the expression of collagen
same,Changes in collagen mRNA expression (relative to TGF-β-treated cells),"HK-2 cells [2]; fatty acid concentration 1.0 × 10^−4M, TGF-β 10 ng/ml",113.7% of decrease
CCCCCCCCCC(=O)O [Decanoic Acid],Changes in collagen mRNA expression (relative to TGF-β-treated cells),"HK-2 cells [2]; fatty acid concentration 5.8 × 10^−7M, TGF-β 10 ng/ml",105.4% of decrease
CCCCCCCCCCCCCC(=O)OCC(COC(=O)CCCCCCCCCCCCC)OC(=O)CCCCCCCCCCCCC [Trimyristin],Changes in collagen mRNA expression (relative to TGF-β-treated cells),HK-2 cells [2]; triglyceride concentration 5%,52.3% of decrease
CCCCCCCCC(=O)O [Nonanoic Acid],Effect on expression of collagen in TGF-β-induced HK-2 cells (in words),HK-2 cells [1],inhibited the expression of collagen
same,Changes in collagen mRNA expression (relative to TGF-β-treated cells),"HK-2 cells [2]; fatty acid concentration 6.3 × 10^−7M, TGF-β 10 ng/ml",51.4% of decrease
CCCCCCCCCCCC(=O)OCC(COC(=O)CCCCCCCCCCC)OC(=O)CCCCCCCCCCC [Trilaurin],Changes in collagen mRNA expression (relative to TGF-β-treated cells),HK-2 cells [2]; triglyceride concentration 5%,84.6% of decrease
